“And” between values parts separate entries of the source, which are not always exact repeats. Identical values can stand only once.
Experiments:
OGG1 [1] = biological target: T1, OGG1 (Homo sapiens (Human), UniProt O15527); assay: Km and Kcat study (Michaelis-Menten / Lineweaver-Burk) of OGG1 with inhibitor; format: biochemical
Description: Methods: For Michaelis-Menten curves: Inhibitor 41 and hOGG1 (100 nM) were incubated in NEBuffer 4 (1×) with BSA (1×) at 37° C. (15 min) in 100 μL reaction volumes in a black 96-well plate. After that, OGR1 (0.8-10 μM) was added to the reaction mixture. Fluorescence at 460 nm was measured on a Thermo Fluoroskan Ascent FL fluorescence plate reader (Aex=355 nm). The initial rate (12 min) was calculated. Lineweaver-Burk plot was leaded from the Michaelis-Menten curves. Km and Vmax were calculated from the equation. Kcat was calculated from Kcat=Vmax/[enzyme].

SMUG1 = SMUG1 (Homo sapiens (Human), UniProt Q53HV7); assay: SMUG1 assay; format: biochemical; details: 20 μM inhibitor
SMUG1, sequence (Q53HV7 whole entry, species assumed): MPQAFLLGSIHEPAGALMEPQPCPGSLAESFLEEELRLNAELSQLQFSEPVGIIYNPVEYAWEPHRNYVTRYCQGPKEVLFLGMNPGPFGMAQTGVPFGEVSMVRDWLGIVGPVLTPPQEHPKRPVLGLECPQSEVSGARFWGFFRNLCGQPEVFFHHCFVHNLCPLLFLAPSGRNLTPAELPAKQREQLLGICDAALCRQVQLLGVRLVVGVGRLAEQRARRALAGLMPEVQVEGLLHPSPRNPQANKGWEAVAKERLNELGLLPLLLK
Description: (See, e.g., Ono, T., et al., Nucleic Acids Res. 2013, 41, e127-e127, the disclosure of which is incorporated herein by reference.) Enzyme (500 U/mL) was pre-incubated for 5 minutes with 20 μM inhibitor or vehicle or at 37° C. in 50 mM Tris (pH 7.4), 1 mM DTT and 0.5 mM EDTA. Probe 2 (1 μM) was added and the fluorescent signal was plotted over 15 minutes to calculate initial rate. Inhibitor rates were normalized against the vehicle control rate.

HeLa cells = assay: MTT assay, HeLa; format: cell-based, human; details: 24 h
Description: Methods: HEK293T cells (concentration of 1.6×10^4 cells per well) and HeLa cells (concentration of 1.2×10^4 cells per well) were seeded to 96-well plate in supplemented DMEM culture medium (10% FBS, 100 U Pen./Strep.) and incubated for 30 h (HEK293T cells) and 16 h (HeLa cells) at +37° C. and 5% CO2. […] After the incubation period, 10 μL of the MTT labeling reagent (final concentration 0.5 mg/ml) was added to each well, and incubated at +37° C. and 5%. 100 μl of the solubilization solution was added into each well, and incubated for 20 h at +37° C. and 5%. Absorbance of the samples was measured by using a microplate reader Tecan Infinite M1000 at 550, and 650 nm. […] In the rest of the samples (10 μM, 1 μM, 100 nM, and 10 nM) concentration of DMSO was at the level of 1%. The controls were prepared: Ctrl—cells cultured only in the supplemented DMEM; Ctrl 5% DMSO—cells cultured in 5% DMSO in the supplemented DMEM; Ctrl 1% DMSO—cells cultured in 1% DMSO in the supplemented DMEM.

[2] = tested on: Caco-2 cells (clone C2BBe1); assay: CACO-2 permeability assay; format: in vitro ADME; details: for Recovery: 5 μM, 120 minutes; for Papp AVG: average; for Papp R1: replicate 1
Description: Methods: Caco-2 cells (clone C2BBe1) were obtained from American Type Culture Collection (Manassas, Va.). Cell monolayers were grown to confluence on collagen-coated, microporous membranes in 12-well assay plates. Details of the plates and their certification are shown below. The permeability assay buffer was Hanks' balanced salt solution containing 10 mM HEPES and 15 mM glucose at a pH of 7.4. The buffer in the receiver chamber also contained 1% bovine serum albumin. The dosing solution concentration was 5 μM of test article in the assay buffer. Cell monolayers were dosed on the apical side (A-to-B) or basolateral side (B-to-A) and incubated at 37° C. with 5% CO2 in a humidified incubator. Samples were taken from the donor and receiver chambers at 120 minutes. Each determination was performed in duplicate. The flux of Lucifer yellow was also measured post-experimentally for each monolayer to ensure no damage was inflicted to the cell monolayers during the flux period. All samples were assayed by LC-MS/MS using electrospray ionization.

[3] = tested on: DUT (deoxyuridine 5′-triphosphate nucleotidohydrolase); details: 20 μM
OGG1 [4] = biological target: T1, OGG1; assay: Surface plasmon resonance (SPR) binding to OGG1
Description: Additional embodiments utilize surface plasmon resonance (SPR) to investigate the binding of various compounds to OGG1. […] Specifically, FIG. 8A illustrates a sensorgram plot of binding response versus time, while FIG. 8B illustrates binding response versus concentration of an inhibitor. Further, FIG. 8C provides Ka, Kd and KD values that are calculated for compounds of various embodiments. These figures indicate that certain embodiments bind strongly to OGG1.

NUDT16 = NUDT16 (Homo sapiens (Human), UniProt Q96DE0); assay: NUDT16 assay; format: biochemical; details: 20 μM
NUDT16, sequence (Q96DE0 whole entry, species assumed): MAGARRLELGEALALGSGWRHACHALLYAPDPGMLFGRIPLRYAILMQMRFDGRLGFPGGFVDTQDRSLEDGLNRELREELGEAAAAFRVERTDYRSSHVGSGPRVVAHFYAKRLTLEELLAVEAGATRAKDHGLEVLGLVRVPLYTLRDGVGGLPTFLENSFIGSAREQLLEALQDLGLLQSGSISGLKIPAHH
Description: After 1 h incubation at 37° C., 5 μL of this reaction solution was added to 20 μL Kinase-Glo Luminescent Kinase Assay reaction solution (prepared as instructed for the ATP determination kit) in a 96 well plate. The bioluminescence signal was recorded at 1 min intervals over 10 min.

[5] = Half-life / pharmacokinetics after intraperitoneal dosing; format: in vivo; details: mice, IP, 3 mg/kg
Description: Methods: Each OGG1 inhibitor was dosed by intraperitoneal (IP) and oral (PO) routes of administration at a target dose of 3 mg/kg. Blood samples were collected up to 24 hours post-dose, and blood concentrations of the test articles were determined by LC-MS/MS. Pharmacokinetic parameters were determined using Phoenix WinNonlin (v8.0) software

[6] = biological target: MTH1 (human MutT homolog 1) (Homo sapiens (Human), UniProt P36639); assay: MTH1 assay (ARGO probe, Kinase-Glo); format: biochemical; details: 20 μM
Description: (30 min). After that, 5 μL of this reaction solution was mixed with 20 μL of Kinase-Glo. Immediately, luminescence was measured on a Thermo Fluoroskan Ascent FL fluorescence plate reader. (See, e.g., Ji, D., et al., J. Am. Chem. Soc. 2016, 138, 9005-9008, the disclosure of which is incorporated herein by reference.) The slope of initial rate (6 min) was calculated, and % of control was used for inhibition activity. MTH1 was purchased from Abcam, PNK buffer was purchased from New England Biolabs, and Kinase-Glo was purchased from Promega.

T1 sequence (O15527 whole entry): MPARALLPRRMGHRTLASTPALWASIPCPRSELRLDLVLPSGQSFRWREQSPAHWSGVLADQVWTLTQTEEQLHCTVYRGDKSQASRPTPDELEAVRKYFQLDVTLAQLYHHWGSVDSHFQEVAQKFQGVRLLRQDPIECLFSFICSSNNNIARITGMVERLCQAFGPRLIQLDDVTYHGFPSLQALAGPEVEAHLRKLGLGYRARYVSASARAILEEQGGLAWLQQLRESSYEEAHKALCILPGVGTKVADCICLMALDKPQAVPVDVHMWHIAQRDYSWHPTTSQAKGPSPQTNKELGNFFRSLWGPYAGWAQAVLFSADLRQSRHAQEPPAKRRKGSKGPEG

With `NC(=O)c1cccc(-c2ccc(S(=O)(=O)Nc3ccc4c(c3)N(C(=O)C3CC3)CCC4)cc2)c1` [Compound 41] the Kcat (OGG1 [1]; OGG1 with 200 nM 41) was 0.057 s⁻¹, the Kcat/Km (OGG1 [1]; OGG1 with 200 nM 41) was 0.0070 s^−1μM^−1 and the Km (OGG1 [1]; OGG1 with 200 nM 41) was 8.2 µM. The Kcat (OGG1 [1]; OGG1 with 2 μM 41) was 0.040 s⁻¹, the Kcat/Km (OGG1 [1]; OGG1 with 2 μM 41) was 0.022 s^−1μM^−1 and the Km (OGG1 [1]; OGG1 with 2 μM 41) was 1.8 µM. The “SMUG1 enzyme activity in the presence of the inhibitor” value (SMUG1) was roughly 100%, the “cytotoxicity by MTT assay” value (HeLa cells; 10 nM to 10 μM) was “little or no cytotoxicity” and the “toxicity by MTT assay” value (HeLa cells; 100 μM) was 30-50%. For the same molecule, the Recovery ([2]; A-to-B) was 65%, the “Papp AVG” value ([2]; A-to-B) was 12.5 10^−6 cm/s and the “Papp R1” value ([2]; A-to-B) was 14.2 10^−6 cm/s. For the same molecule, the “Efflux Ratio” value ([2]; B-to-A / A-to-B) was 6.2, the Recovery ([2]; B-to-A) was 79% and the “Papp AVG” value ([2]; B-to-A) was 77.4 10^−6 cm/s. The “Papp R1” value ([2]; B-to-A) was 63.5 10^−6 cm/s, the “activity of compound against DUT (selectivity)” value [3] was “low” and the “binding to OGG1 by SPR” value (OGG1 [4]) was “binds strongly”. The “NUDT16 enzyme activity in the presence of the inhibitor” value (NUDT16) was roughly 70%, the “average exposure, dose-normalized AUClast” value [5] was 543±281 hr*kg*ng/m L/m g and the “maximum blood concentrations (average)” value [5] was 1210 ± 206 ng/mL. For the same molecule, the “time of maximum blood concentrations post dosing” value [5] was 15 min, the “Half-life Mean” value ([5]; mean of three replicates, listed as SU0268) was “approximately 4 hr and 4.02±0.709 hr and 4.02 hr” and the “Half-life R1” value ([5]; replicate 1) was 4.84 h. For the same molecule, the “Half-life R3” value ([5]; replicate 3) was 3.60 h and the “MTH1 enzyme activity in the presence of the inhibitor” value [6] was greater than 80%.
